Laboratory results as given in PubChem BioAssay AID256 (DTP/NCI, 2004).
Where “and” joins values, the source holds several entries; their conditions need not be identical. Equal entries are not always repeated. Toxic doses and inconclusive results are not listed. The calls were made as follows: active = survival T/C of 150% or more; inactive = T/C below 125% in these data.

Test system: CD2F1 mice, L1210 leukemia ip, survival T/C
Experiment: NCI In Vivo Anticancer Drug Screen. Data for tumor model L1210 Leukemia (intraperitoneal) in CD2F1 (CDF1) mice
Conditions: higher = longer survival
Method in brief: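 Activity against a transplanted murine tumor was judged by comparing the compound group with a vehicle group. The outcome in the treated animals was divided by that in the controls.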

[1] = endpoint: mean survival time, dose: 100.0 mg/kg/injection, schedule: Q01DX009 (ip), vehicle: saline with Tween-80
[2] = endpoint: mean survival time, dose: 200.0 mg/kg/injection, schedule: Q01DX009 (ip), vehicle: saline with Tween-80

Measured: T/C

Cc1ccccc1N=Nc1ccccc1
inactive: endpoint: mean survival time, dose: 100.0 mg/kg/injection, schedule: Q01DX001 (ip), vehicle: saline with Tween-80 104 % of control | endpoint: mean survival time, dose: 200.0 mg/kg/injection, schedule: Q01DX001 (ip), vehicle: saline with Tween-80 96 % of control | endpoint: mean survival time, dose: 400.0 mg/kg/injection, schedule: Q01DX001 (ip), vehicle: saline with Tween-80 101 % of control

COc1cc(OC)c(NC(=O)Oc2ccc(Br)cc2Br)cc1Cl
inactive: endpoint: mean survival time, dose: 12.5 mg/kg/injection, schedule: Q01DX009 (ip), vehicle: saline with Tween-80 92 % of control | endpoint: mean survival time, dose: 25.0 mg/kg/injection, schedule: Q01DX009 (ip), vehicle: saline with Tween-80 100 % of control | endpoint: mean survival time, dose: 50.0 mg/kg/injection, schedule: Q01DX009 (ip), vehicle: saline with Tween-80 94 % of control and 107 % of control | [1] 94 % of control | [2] 90 % of control

Nc1cc2c(c[n+](CCCBr)c3ccccc23)c2ccccc12
inactive: endpoint: mean survival time, dose: 3.13 mg/kg/injection, schedule: Q04DX003 (ip), vehicle: other 111 % of control | endpoint: mean survival time, dose: 6.25 mg/kg/injection, schedule: Q04DX003 (ip), vehicle: other 122 % of control | endpoint: mean survival time, dose: 12.5 mg/kg/injection, schedule: Q04DX003 (ip), vehicle: other 120 % of control | endpoint: mean survival time, dose: 25.0 mg/kg/injection, schedule: Q04DX003 (ip), vehicle: other 109 % of control | endpoint: mean survival time, dose: 50.0 mg/kg/injection, schedule: Q04DX003 (ip), vehicle: other 87 % of control

CC1(C)CC(=O)c2cc([C@@H]3OC[C@@H](O)[C@H]3O)[nH]c2C1
inactive: endpoint: median survival time, dose: 12.5 mg/kg/injection, schedule: Q01DX005 (ip), vehicle: water 101 % of control | endpoint: median survival time, dose: 25.0 mg/kg/injection, schedule: Q01DX005 (ip), vehicle: water 101 % of control | endpoint: median survival time, dose: 50.0 mg/kg/injection, schedule: Q01DX005 (ip), vehicle: water 101 % of control | endpoint: median survival time, dose: 100.0 mg/kg/injection, schedule: Q01DX005 (ip), vehicle: water 94 % of control | endpoint: median survival time, dose: 200.0 mg/kg/injection, schedule: Q01DX005 (ip), vehicle: water 96 % of control

C=C(C)COc1c(C)cc(C)cc1[N+](=O)[O-]
inactive: [1] 98 % of control | [2] 100 % of control | endpoint: mean survival time, dose: 400.0 mg/kg/injection, schedule: Q01DX009 (ip), vehicle: saline with Tween-80 104 % of control
